Measured values published in patent US9994552B2, “Compositions useful for treating disorders related to kit” (BLUEPRINT MEDICINES CORPORATION, priority 2013, dated 2018).
pIC50: −log10 of the molar value.

How the values were obtained:
wild type Kit = wild type Kit (Homo sapiens (Human), UniProt P10721); experiment: Kit wild type assay at Km (Caliper electrophoretic mobility shift); assay type: biochemical; conditions: wild type Kit 2 nM, 400 uM ATP (Km), 1 uM Srctide, 25 C, 90 minutes; read-out: INH-KITWT ENZ-KM IC50 (nM) (Num)
Outline: (§1)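 Read-out is the ratio of phosphorylated to unphosphorylated fluorescent peptide, resolved by mobility shift on a Caliper EZ Reader 2.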

[1] = molecular target: Kit D816V kinase activity (Kit autophosphorylation at tyrosine 719) (Homo sapiens (Human), UniProt P10721, D816V/V560G); experiment: HMC1.2 Autophosphorylation Assay (AlphaLISA phospho-Y719 c-Kit)
Experimental: 10,000 HMC1.2 cells were incubated in 22 ul culture media (phenol-red free IMDM, no serum) in each well of a 384-well plate and serum starved overnight in a tissue culture incubator (5% CO2, 37° C.). […] After 90 minutes, 6 ul of 5× AlphaLISA Lysis Buffer (Perkin Elmer) supplemented with a protease and phosphatase inhibitor cocktail (Cell Signaling Technologies) was added to each well and shaken at 450 rpm for 15 minutes at 4° C. […] 10 ul of 100 ug/ml streptavidin donor beads (Perkin Elmer) were added to each well, blocked from light with aluminum adhesive and shaken at 300 rpm at room temperature for 2 hours. Fluorescence signal was obtained on Envision (Perkin Elmer) by AlphaScreen 384 well HTS protocol.

HMC1.2 cells = experiment: HMC1.2 Proliferation Assay (CellTiter-Glo); conditions: 72 h, read-out: HMC1.2 Proliferation IC50
Experimental: 1000 HMC1.2 cells were incubated in 22 ul culture media (IMDM, 10% calf serum with Iron) in each well of a 384-well plate overnight in a tissue culture incubator (5% CO2, 37° C.). […] After 3 days incubation in tissue culture incubator, 25 ul CellTiter-Glo (Promega) solution was added to each well for ATP/cell viability measurement.
In addition, these compounds were assayed for their ability to inhibit the dependence of these cells on Kit kinase activity by disrupting their growth and proliferation.

D816V Kit = D816V Kit (Homo sapiens (Human), UniProt P10721, D816V); experiment: Kit D816V assay at Km (Caliper electrophoretic mobility shift); assay type: biochemical; conditions: for IC50: D816V Kit 0.5 nM, 15 uM ATP (Km), 1 uM Srctide, 25 C, 90 minutes, read-out: INH-KITD816V ENZ-KM IC50 (nM) (Num)
Outline: as §1

Chain of wild type Kit (P10721 26-976): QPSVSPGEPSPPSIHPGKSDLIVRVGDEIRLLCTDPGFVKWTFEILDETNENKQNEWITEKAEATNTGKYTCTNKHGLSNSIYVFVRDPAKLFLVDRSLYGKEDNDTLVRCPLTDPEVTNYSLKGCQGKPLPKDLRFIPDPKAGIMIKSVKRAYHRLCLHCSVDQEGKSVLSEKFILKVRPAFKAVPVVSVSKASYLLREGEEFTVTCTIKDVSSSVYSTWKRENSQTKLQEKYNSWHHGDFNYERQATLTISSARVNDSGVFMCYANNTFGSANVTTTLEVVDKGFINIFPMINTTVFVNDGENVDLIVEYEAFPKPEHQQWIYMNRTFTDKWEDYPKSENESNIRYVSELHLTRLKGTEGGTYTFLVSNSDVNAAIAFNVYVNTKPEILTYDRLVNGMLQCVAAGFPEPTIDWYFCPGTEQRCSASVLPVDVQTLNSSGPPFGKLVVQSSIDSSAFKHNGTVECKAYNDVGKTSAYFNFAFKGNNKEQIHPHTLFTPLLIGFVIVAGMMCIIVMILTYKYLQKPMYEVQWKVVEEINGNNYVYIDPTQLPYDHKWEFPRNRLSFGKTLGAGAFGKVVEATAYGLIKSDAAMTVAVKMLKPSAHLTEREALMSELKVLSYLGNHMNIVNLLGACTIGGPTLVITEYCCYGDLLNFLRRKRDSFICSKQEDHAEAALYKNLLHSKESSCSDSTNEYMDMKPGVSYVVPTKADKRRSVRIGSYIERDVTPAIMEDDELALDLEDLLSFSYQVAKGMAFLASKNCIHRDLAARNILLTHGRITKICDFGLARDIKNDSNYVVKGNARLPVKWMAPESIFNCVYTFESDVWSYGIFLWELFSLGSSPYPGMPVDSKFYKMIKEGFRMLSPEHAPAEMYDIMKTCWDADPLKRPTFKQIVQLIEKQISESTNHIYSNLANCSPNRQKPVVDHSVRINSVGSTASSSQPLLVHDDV
Chain of D816V Kit (P10721 26-976 D816V): as the sequence (P10721 26-976) above, with D791V counted along it
Chain of Kit D816V kinase activity (Kit autophosphorylation at tyrosine 719) (P10721 26-976 V560G/D816V): as the sequence (P10721 26-976) above, with V535G, D791V counted along it

Row | Structure (SMILES) | IC50 (wild type Kit) [nM] | pIC50 [1] | IC50 (D816V Kit) [nM] | times more potent against the D816V mutant than against the wild-type Kit (D816V Kit; D816V Kit versus wild-type Kit, enzyme assays at Km) | pIC50 (HMC1.2 cells)
1 | COc1cc2ncnc(N3CCN(c4ncc(Cc5ccccc5)c(O)n4)CC3)c2cc1OC [Compound 35] | < 10 | 6.00 to 7.00 | < 1 |  | 6.00 to 7.00
2 | COc1cc2ncnc(N3CCN(c4ncc(COc5ccccc5)cn4)CC3)c2cc1OC [Compound 36] | 11 to 100 | 6.00 to 7.00 | 1.01 to 10 |  | 5.00 to 6.00
3 | COc1cc2ncnc(N3CCN(c4ncc(Cc5ccccc5)cn4)CC3)c2cc1OCC1CNC1 [Compound 79] | 11 to 100 | 7.00 to 8.00 | 1.01 to 10 |  | 5.00 to 6.00
4 | COc1cc2ncnc(N3CCN(c4ncc(Cc5ccccc5)cn4)CC3)c2cc1OCC(O)CO (stereo not shown) [Compound 84] | 11 to 100 | 6.00 to 7.00 | 1.01 to 10 |  | 5.00 to 6.00
5 | COc1cc2c(N3CCN(c4ncc(Cc5ccccc5)cn4)CC3)ncnc2cc1OCC(O)CO (stereo not shown) [Compound 85] | 11 to 100 | 6.00 to 7.00 | 1.01 to 10 |  | 5.00 to 6.00
6 | COc1cc2ncnc(N3CCN(c4ncc(Cc5ccccc5)cn4)CC3)c2cc1OCC1CCNCC1 [Compound 98] | 11 to 100 | 7.00 to 8.00 | < 1 |  | 5.00 to 6.00
7 | COc1cc2ncnc(N3CCN(c4ncc(Cc5ccccc5)cn4)CC3)c2cc1OC1CCN(C)CC1 [Compound 99] | 11 to 100 | 6.00 to 7.00 | 1.01 to 10 |  | 5.00 to 6.00
8 | COc1cc2ncnc(N3CCN(c4ncc(Cc5ccccc5)cn4)CC3)c2cc1OCC1CNCCO1 (stereo not shown) [Compound 105] | 11 to 100 | 7.00 to 8.00 | < 1 |  | 6.00 to 7.00
9 | COc1cc2ncnc(N3CCN(c4ncc(Cc5ccccc5)cn4)CC3)c2cc1OCC1CCNC(=O)C1 (stereo not shown) [Compound 109] | 11 to 100 | 7.00 to 8.00 | < 1 |  | 5.00 to 6.00
10 | COc1cc2ncnc(N3CCN(c4ncc(Cc5ccccc5)c(=O)[nH]4)CC3)c2cc1OCC1CNCCO1 (stereo not shown) [Compound 119] | < 10 | 5.00 to 6.00 | < 1 |  | < 5.00
11 | COc1cc2c(N3CCN(c4ncc(Cc5ccccc5)cn4)CC3)ncnc2cc1OCCCN1CCCCC1 [Compound 123] | 100 to 1000 | 5.00 to 6.00 | 10 to 100 |  | 5.00 to 6.00
12 | COc1cc2ncnc(N3CCN(c4ncc(Cc5ccccc5)c(N)n4)CC3)c2cc1OCC1CCN(C)CC1 [Compound 125] | < 10 | > 8.00 | < 1 |  | 6.00 to 7.00

The next lines start with results.

Row | IC50 (wild type Kit) [nM] | pIC50 [1] | IC50 (D816V Kit) [nM] | times more potent against the D816V mutant than against the wild-type Kit (D816V Kit; D816V Kit versus wild-type Kit, enzyme assays at Km) | Structure (SMILES) | pIC50 (HMC1.2 cells)
13 | 11 to 100 | 6.00 to 7.00 | 1.01 to 10 | less than 5 times | COc1cc2ncnc(N3CCN(c4ncc(Cc5ccccc5)cn4)C(C)C3)c2cc1OC (stereo not shown) [Compound 23] | 5.00 to 6.00
14 | 11 to 100 | 6.00 to 7.00 | < 1 |  | COc1cc2c(N3CCN(c4ncc(Cc5ccccc5)cn4)CC3)ncnc2cc1OCCN1CCCC1=O [Compound 111] | 5.00 to 6.00
15 | 11 to 100 | 7.00 to 8.00 | < 1 |  | COc1cc2ncnc(N3CCN(c4ncc(Cc5ccccc5)cn4)CC3)c2cc1OCC1CCN(C)CC1 [Compound 112] | 5.00 to 6.00
16 | < 10 | 7.00 to 8.00 | < 1 |  | COc1cc2c(N3CCN(c4ncc(Cc5ccccc5)cn4)CC3)ncnc2cc1OCCCN1CCN(C)CC1 [Compound 134] | 6.00 to 7.00
17 | 11 to 100 | 6.00 to 7.00 | < 1 |  | COc1cc2ncnc(N3CCN(c4ncc(Cc5ccccc5)cn4)CC3)c2cc1OCCCN1CCN(C)CC1 [Compound 136] | 5.00 to 6.00
18 | 11 to 100 | 6.00 to 7.00 | 1.01 to 10 |  | COc1cc2c(N3CCN(c4ncc(Nc5ccc(C)cc5)cn4)CC3)ncnc2cc1OCCCN1CCCCC1 [Compound 137] | 5.00 to 6.00
